Patent EP0745595A1, “3-(3-Aryloxyphenyl)-1-(substituted methyl)-s-triazine-2,4,6-oxo or thiotrione herbicidal agents” (American Cyanamid Company, priority 1995, dated 1996)

How the values were obtained:
Type in all cases: in vivo
[1] = system: ORYZA SATIVA, L. TEBONNET; assay: Rice tolerance to post-transplant applications under flooded paddy conditions, ORYSAT (Rice, Tebonnet); conditions: for Herbicidal effect rating, ORYSAT: post-transplant rice, 3-4 weeks after treatment; for ORYSAT: post-transplanted rice
Method in brief: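 Two ten-day-old Tebonnet rice seedlings transplanted into silt loam, flooded 1.5–3 cm; three days later the water surface treated with compounds in acetone/water at about 0.5, 0.25, 0.125 and 0.063 kg/ha. Visual 0–9 injury rating versus control after 3–4 weeks in greenhouse.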

[2] = system: SETARIA VIRIDIS, (L) BEAU; assay: Postemergence herbicidal evaluation, SETVI (Foxtail, Green); set-up: key to SETVI rating / Herbicidal effect rating, SETVI / SETVI: 0-9 visual rating scale vs untreated control
Method in brief: (§1)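 Seedlings about two weeks old were sprayed with compound in 50/50 acetone/water containing 0.5% Tween 20 at about 0.125-0.500 kg/ha and kept in the greenhouse. Visual injury was rated on a 0-9 scale versus control 4-5 weeks after treatment; repeat tests were averaged.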

[3] = system: ECHINOCHLOA CRUS-GALLI, (L) BEAU; assay: Postemergence herbicidal evaluation, ECHCG (Barnyardgrass); set-up: key to ECHCG rating / Herbicidal effect rating, ECHCG / ECHCG: 0-9 visual rating scale vs untreated control
Method in brief: as §1

IPOMOEA SPP. = assay: Postemergence herbicidal evaluation, IPOSS (Morningglory spp.)
Method in brief: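 Seedlings of morningglory (Ipomoea spp.) were raised in jiffy flats for roughly two weeks. They were then sprayed postemergence through a nozzle at 40 psi with test compound dispersed in 50/50 acetone/water containing 0.5% TWEEN®20 surfactant. Plants were kept on greenhouse benches under standard care and visually rated 0-9 against controls four to five weeks after treatment.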

[4] = system: TRITICUM AESTIVUM, CV. APOLLO; assay: Postemergence herbicidal evaluation, TRZAWO (Wheat, Winter, CV. APOLLO);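 also: higher means more injury with 8 approaching complete kill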
Method in brief: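 Wheat seedlings, raised in jiffy flats for roughly two weeks, were sprayed postemergence with test compound dispersed in a 50/50 acetone/water mixture containing 0.5% TWEEN®20 surfactant, delivered through a nozzle at 40 psi. Plants were then kept on greenhouse benches under conventional care. Four to five weeks after treatment they were rated visually on a 0-9 scale against an untreated control, and ratings from repeated tests were averaged.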

[5] = system: AMBROSIA ARTEMISIIFOLIA, L.; assay: Postemergence herbicidal evaluation, AMBEL (Ragweed, Common);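 also: higher means more injury with 8 approaching complete kill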
Method in brief: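 Common ragweed (Ambrosia artemisiifolia) seedlings were raised in jiffy flats for roughly two weeks, then sprayed postemergence through a nozzle at 40 psi with the test compound dispersed in 50/50 acetone/water carrying 0.5% TWEEN®20. The plants were kept on greenhouse benches under conventional care. Four to five weeks later, injury was rated visually on a 0-9 scale, and repeat tests were averaged.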

CASSIA OBTUSIFOLIA, L. = assay: Postemergence herbicidal evaluation, CASOB (Sicklepod); set-up: key to CASOB rating / Herbicidal effect rating, CASOB / CASOB: 0-9 visual rating scale vs untreated control
Method in brief: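 Two-week-old seedlings sprayed with compound in 50/50 acetone/water plus 0.5% TWEEN 20 at about 0.125–0.500 kg/ha via nozzle at 40 psi. Kept in greenhouse; rated visually 4–5 weeks after treatment on a 0–9 scale versus untreated control, averaging repeat tests.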

CHENOPODIUM ALBUM, L. [6] = assay: Preemergence herbicidal evaluation, CHEAL (Lambsquarters, Common); conditions: for CHEAL herbicidal rating: rated four to five weeks after treatment
Method in brief: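 Injury scored visually (0–9; stand, vigor, malformation, size, chlorosis) versus untreated control, four to five weeks post-treatment. Application: aqueous acetone spray onto freshly planted soil cups, equivalent to about 0.125 to 0.50 kg/ha, plants then kept under standard greenhouse care.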

ZEA MAYS L. = assay: Postemergence herbicidal evaluation, ZEAMX (Corn, Field);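 also: higher means more injury with 8 approaching complete kill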
Method in brief: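 Corn seedlings were raised in jiffy flats for roughly two weeks, then sprayed postemergence with the test material dispersed in 50/50 acetone/water containing 0.5% TWEEN®20 surfactant, using a nozzle at 40 psi. Plants were kept on greenhouse benches under standard care and visually rated on a 0-9 scale four to five weeks after treatment.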

CHENOPODIUM ALBUM, L. [7] = assay: Postemergence herbicidal evaluation, CHEAL (Lambsquarters, Common)
Method in brief: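 Seedlings of common lambsquarters (Chenopodium album) were raised in jiffy flats for roughly two weeks, then sprayed postemergence through a nozzle at 40 psi with test compound dispersed in 50/50 acetone/water containing 0.5% TWEEN®20 surfactant. Plants were kept on greenhouse benches under standard care and rated visually on a 0-9 scale versus controls.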

GALIUM APARINE = assay: Postemergence herbicidal evaluation, GALAP (Galium); set-up: key to GALAP rating / Herbicidal effect rating, GALAP / GALAP: 0-9 visual rating scale vs untreated control;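 also: higher means more injury with 8 approaching complete kill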
Method in brief: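 Galium (GALAP) seedlings were raised in jiffy flats for about two weeks, then sprayed with test compounds dispersed in 50/50 acetone/water containing 0.5% TWEEN®20, delivered through a nozzle at 40 psi. Plants were kept on greenhouse benches and visually rated 0-9 against a control four to five weeks later; repeat tests were averaged.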

COC(=O)Cn1c(=O)n(C)c(=O)n(-c2cc(Oc3ccc(C(F)(F)F)cc3Cl)ccc2Cl)c1=O [Compound 39, Methyl 3-{[2-chloro-5-(2-chloro-α,α,α-trifluoro-p-tolyl)oxy]phenyl}tetrahydro-5-methyl-2,4,6-trioxo-s-triazine-1(2H)-acetate]
3.3: ZEAMX (ZEA MAYS L.; Rate 0.016 kg/ha)
8.0: SETVI ([2]; Rate 0.250 kg/ha) | ECHCG ([3]; Rate 0.500 kg/ha) | ZEAMX (ZEA MAYS L.; Rate 0.250 kg/ha) | CHEAL (CHENOPODIUM ALBUM, L. [7]; Rate 0.032 kg/ha) | GALAP (GALIUM APARINE; Rate 0.125 kg/ha)
6.0: TRZAWO ([4]; Rate 0.250 kg/ha) | CASOB (CASSIA OBTUSIFOLIA, L.; Rate 0.016 kg/ha) | CHEAL (CHENOPODIUM ALBUM, L. [7]; Rate 0.016 kg/ha)
3.5: Herbicidal effect rating, ORYSAT ([1]; 0.125 kg/ha) | ORYSAT ([1]; Rate 0.125 kg/ha) | SETVI ([2]; Rate 0.063 kg/ha)
5.3: Herbicidal effect rating, ORYSAT ([1]; 0.500 kg/ha)
1.0: ECHCG ([3]; Rate 0.063 kg/ha)
8.5: AMBEL ([5]; Rate 0.125 kg/ha) | ZEAMX (ZEA MAYS L.; Rate 0.500 kg/ha) | GALAP (GALIUM APARINE; Rate 0.032 kg/ha)
4.5: SETVI ([2]; Rate 0.032 kg/ha) | SETVI ([2]; Rate 0.125 kg/ha) | ECHCG ([3]; Rate 0.125 kg/ha) | TRZAWO ([4]; Rate 0.063 kg/ha) | AMBEL ([5]; Rate 0.016 kg/ha)
4.3: ZEAMX (ZEA MAYS L.; Rate 0.032 kg/ha)
3.8: TRZAWO ([4]; Rate 0.032 kg/ha)
5.0: Herbicidal effect rating, ORYSAT ([1]; 0.250 kg/ha) | ORYSAT ([1]; Rate 0.250 kg/ha)
4.8: TRZAWO ([4]; Rate 0.125 kg/ha) | ZEAMX (ZEA MAYS L.; Rate 0.063 kg/ha)
1.5: ECHCG ([3]; Rate 0.016 kg/ha)
5.5: IPOSS (IPOMOEA SPP.; Rate 0.016 kg/ha) | TRZAWO ([4]; Rate 0.500 kg/ha)
2.8: TRZAWO ([4]; Rate 0.016 kg/ha)
3.0: ECHCG ([3]; Rate 0.032 kg/ha)
7.0: IPOSS (IPOMOEA SPP.; Rate 0.032 kg/ha) | GALAP (GALIUM APARINE; Rate 0.063 kg/ha)
1.8: ORYSAT ([1]; Rate 0.031 kg/ha)
9.0: SETVI ([2]; Rate 0.500 kg/ha) | IPOSS (IPOMOEA SPP.; Rate 0.063 kg/ha) | IPOSS (IPOMOEA SPP.; Rate 0.125 kg/ha) | IPOSS rating (IPOMOEA SPP.; Rate 0.125 kg/ha) | IPOSS (IPOMOEA SPP.; Rate 0.250 kg/ha) | IPOSS rating (IPOMOEA SPP.; Rate 0.250 kg/ha) | IPOSS (IPOMOEA SPP.; Rate 0.500 kg/ha) | IPOSS rating (IPOMOEA SPP.; Rate 0.500 kg/ha) | AMBEL ([5]; Rate 0.250 kg/ha) | AMBEL ([5]; Rate 0.500 kg/ha) | CASOB (CASSIA OBTUSIFOLIA, L.; Rate 0.032 kg/ha) | CASOB (CASSIA OBTUSIFOLIA, L.; Rate 0.063 kg/ha) | CASOB (CASSIA OBTUSIFOLIA, L.; Rate 0.125 kg/ha) | CASOB rating (CASSIA OBTUSIFOLIA, L.; Rate 0.125 kg/ha) | CASOB (CASSIA OBTUSIFOLIA, L.; Rate 0.250 kg/ha) | CASOB rating (CASSIA OBTUSIFOLIA, L.; Rate 0.250 kg/ha) | CASOB (CASSIA OBTUSIFOLIA, L.; Rate 0.500 kg/ha) | CASOB rating (CASSIA OBTUSIFOLIA, L.; Rate 0.500 kg/ha) | CHEAL (CHENOPODIUM ALBUM, L. [6]; Rate 0.063 kg/ha) | CHEAL (CHENOPODIUM ALBUM, L. [6]; Rate 0.125 kg/ha) | CHEAL herbicidal rating (CHENOPODIUM ALBUM, L. [6]; Rate 0.125 kg/ha) | CHEAL (CHENOPODIUM ALBUM, L. [6]; Rate 0.250 kg/ha) | CHEAL herbicidal rating (CHENOPODIUM ALBUM, L. [6]; Rate 0.250 kg/ha) | CHEAL (CHENOPODIUM ALBUM, L. [6]; Rate 0.500 kg/ha) | CHEAL herbicidal rating (CHENOPODIUM ALBUM, L. [6]; Rate 0.500 kg/ha) | CHEAL (CHENOPODIUM ALBUM, L. [7]; Rate 0.063 kg/ha) | CHEAL (CHENOPODIUM ALBUM, L. [7]; Rate 0.125 kg/ha) | CHEAL rating (CHENOPODIUM ALBUM, L. [7]; Rate 0.125 kg/ha) | CHEAL (CHENOPODIUM ALBUM, L. [7]; Rate 0.250 kg/ha) | CHEAL rating (CHENOPODIUM ALBUM, L. [7]; Rate 0.250 kg/ha) | CHEAL (CHENOPODIUM ALBUM, L. [7]; Rate 0.500 kg/ha) | CHEAL rating (CHENOPODIUM ALBUM, L. [7]; Rate 0.500 kg/ha) | GALAP (GALIUM APARINE; Rate 0.250 kg/ha) | GALAP (GALIUM APARINE; Rate 0.500 kg/ha)
6.5: AMBEL ([5]; Rate 0.032 kg/ha) | ZEAMX (ZEA MAYS L.; Rate 0.125 kg/ha)
2.5: Herbicidal effect rating, ORYSAT ([1]; 0.063 kg/ha) | ORYSAT ([1]; Rate 0.063 kg/ha) | SETVI ([2]; Rate 0.016 kg/ha)
7.5: ECHCG ([3]; Rate 0.250 kg/ha) | AMBEL ([5]; Rate 0.063 kg/ha) | GALAP (GALIUM APARINE; Rate 0.016 kg/ha)
